Results from publication PMC3376217 (2012).
Where two headings read alike, the source gives them in different places.

Columns and labels:
[1] = biological target: T1, TOR2 (Saccharomyces cerevisiae, UniProt P32600); assay: IP radiometric kinase assay on PHAS-I; format: biochemical
[2] = biological target: T1, TOR2; assay: IP radiometric kinase assay on PHAS-I; format: biochemical; remark: listed apart in the source

| IC50 [1] | Compound | IC50 [2] |
| --- | --- | --- |
| ~50 nM | Nc1ccc(-c2ccc3ncc4ccc(=O)n(-c5ccc(F)c(C(F)(F)F)c5)c4c3c2)cn1 [QL-IX-55] | – |
| – | CCC(=O)N1CCN(c2ccc(-n3c(=O)ccc4cnc5ccc(-c6cnc7ccccc7c6)cc5c43)cc2C(F)(F)F)CC1 [Torin1] | 250 to 500 nM |
